Test results: patent publication EP3421460A1, “2-[(4-ALKYLPHENOXY)-PYRIDINYL]-1-(1,2,4-TRIAZOL-1-YL)ALKAN-2-OL FUNGICIDES” (Bayer Aktiengesellschaft, priority 2018, dated 2019)

Experiments:
[1] = LogP measurement by HPLC on reversed phase columns (EEC directive 79/831 Annex V.A8); type: physicochemical; settings: reversed phase HPLC column; method [a]: LC-UV, acidic range, 0.1% formic acid in water and acetonitrile as eluent
Protocol: LogP values: Measurement of LogP values was performed according to EEC directive 79/831 Annex V.A8 by HPLC (High Performance Liquid Chromatography) on reversed phase columns with the following methods: • [a] […] If more than one LogP value is available within the same method, all the values are given and separated by "+". Calibration was done with straight-chain alkan2-ones (with 3 to 16 carbon atoms) with known LogP values (measurement of LogP values using retention times with linear interpolation between successive alkanones). Lambda-max-values were determined using UV-spectra from 200 nm to 400 nm and the peak values of the chromatographic signals.

Phakopsora pachyrhizi = assay: in vivo curative test on Phakopsora (soybeans); settings: sprayed 3 days after inoculation, evaluated 7 days after inoculation
Protocol: Example A: in vivo curative test on Phakopsora (soybeans); comparison of compound I-01 according to the invention vs. related compounds known from WO-A 2017/029179 and WO-A 2013/007767, respectively [table] To produce a suitable preparation of active compound, 1 part by weight of active compound is mixed with the stated amounts of solvent and emulsifier, and the concentrate is diluted with water to the desired concentration. To test for curative activity, young plants are inoculated with an aqueous spore suspension of the causal agent of soybean rust (Phakopsora pachyrhizi) and stay for 24h without light in an incubation cabinet at approximately 24°C and a relative atmospheric humidity of 95 %. The plants remain in the incubation cabinet at approximately 24°C and a relative atmospheric humidity of approximately 80 % and a day / night interval of 12h. 3 days after the inoculation, the plants are sprayed with the preparation of active compound at the stated rate of application. The test is evaluated 7 days after the inoculation. 0% means an efficacy which corresponds to that of the untreated control, while an efficacy of 100% means that no disease is observed. Table: in vivo curative test on Phakopsora test (soybeans)

Podosphaera leucotricha = assay: in vivo curative test on Podosphaera (apples); settings: sprayed 2 days after inoculation, evaluated 10 days after inoculation
Protocol: Example B: in vivo curative test on Podosphaera (apples); comparison of compound I-01 according to the invention vs. related compounds known from WO-A 2017/029179 and WO-A 2013/007767, respectively [table] To produce a suitable preparation of active compound, 1 part by weight of active compound is mixed with the stated amounts of solvent and emulsifier, and the concentrate is diluted with water to the desired concentration. To test for curative activity, young plants are inoculated with an aqueous spore suspension of the causal agent of apple mildew (Podosphaera leucotricha). The plants are placed in a greenhouse at approximately 23°C under relative atmospheric humidity of approximately 70%. 2 days after the inoculation, the plants are sprayed with the preparation of active compound at the stated rate of application. The test is evaluated 10 days after the inoculation. 0% means an efficacy which corresponds to that of the untreated control, while an efficacy of 100% means that no disease is observed. Table: in vivo curative test on Podosphaera test (apples)

| Compound | chromatographic logP [1] | Efficacy in% (Phakopsora pachyrhizi; rate of application 5 ppm) [%] | Efficacy in% (Phakopsora pachyrhizi; rate of application 10 ppm) [%] | Efficacy in% (Podosphaera leucotricha; rate of application 1 ppm) [%] | Efficacy in% (Podosphaera leucotricha; rate of application 10 ppm) [%] |
| --- | --- | --- | --- | --- | --- |
| Cc1ccc(Oc2ccc(C(C)(O)Cn3cncn3)c(C(F)(F)F)n2)cc1 (stereo not shown) [I-01, 2-[6-(4-methylphenoxy)-2-(trifluoromethyl)pyridin-3-yl]-1-(1,2,4-triazol-1-yl)propan-2-ol] | 2.69 | 86 | 83 | 86 | 99 |
| CC(O)(Cn1cncn1)c1ccc(Oc2ccc(S(F)(F)(F)(F)F)cc2)nc1C(F)(F)F (stereo not shown) [drawing 9] | – | 0 | 0 | – | – |
| CC(O)(Cn1cncn1)c1ccc(Oc2ccc(Cl)cc2)cc1C(F)(F)F (stereo not shown) [drawing 10] | – | 8 | 15 | – | – |
| CC(O)(Cn1cncn1)c1ccc(Oc2ccc(S(F)(F)(F)(F)F)cc2)nc1C(F)(F)F (stereo not shown) [drawing 12] | – | – | – | 62 | 92 |
| CC(O)(Cn1cncn1)c1ccc(Oc2ccc(Cl)cc2)cc1C(F)(F)F (stereo not shown) [drawing 13] | – | – | – | 71 | 95 |
